The numbers were not newly measured in the CATMoS acute toxicity set (Mansouri et al. 2021), which cites them from elsewhere.

Several values for one entry are separate records, joined by “and”; a condition that tells them apart may be missing. Identical values can stand only once.

The data set in a line: rat acute oral toxicity. The following applies: in vivo. The text has this:
[…]The data set underlying the modeling effort for this project was initially compiled by NICEATM and U.S. EPA’s CCTE. Briefly, LD50 data were collected from rat acute oral systemic toxicity tests, including limit tests, ranges/confidence intervals, and discrete LD50 values. The full data set included 21,200 LD50 entries for 15,688 substances. […] Data were reviewed to ensure that LD50 values with obvious errors in the extracted data such as unit conversion errors (e.g., comma and decimal separator misplacements) were either fixed or removed. After this review, 16,209 LD50 values remained. Many of the chemicals represented had multiple LD50 entries, requiring that a single representative value per Chemical Abstracts Service Registry Number (CASRN) identifier be defined to facilitate modeling efforts. Based on ATWG feedback and to define the representative LD50 as a protective value while accounting for the distribution across multiple LD50s, the median of the lowest quartile was computed using only discrete LD50 values (omitting limit test data and range and confidence interval data). A detailed summary of the data compilation is available online on the NICEATM webpage dedicated to the collaborative modeling project (NTP 2020).
[…][…] For categorical designations, limit test and range/confidence interval LD50 data were integrated wherever possible. As such, the number of chemicals with end point values/calls varies across the modeling end points (Table 3) based on whether chemicals had representative LD50 values and/or other data. If a chemical had both, the representative value was used to determine categorical calls rather than limit test data. Some data were useable only for certain end points and categories depending on the thresholds. For example, ranges that spanned multiple hazard categories were considered only for the binary (very toxic/nontoxic) end points and omitted from rendering a determination for hazard category assignment.
[…]The final data set comprising 11,992 chemicals was split into training and evaluation sets […], respectively. This process was performed semirandomly by ordering chemicals based on the five end points (categorical and continuous LD50 values) and partitioning every fourth record into the evaluation set accordingly. This approach was taken to ensure an equivalent distribution of the LD50 values and the different hazard categories between the training and the evaluation sets without supervised sampling of the chemicals based on structures (Figure 1A). The sources of the chemical structures were also kept equivalent between the two sets, with chemical structures obtained from DSSTox, being the highest quality, representing over 75% of each set (Figure 1B).
`CCCCCCOc1ccc(NNC=O)cc1`: the 50% lethal dose (LD50) was 717 mg/kg. On to `O=C(CCCl)OC1=C(OC(=O)CCCl)C(=O)OC1=O`, for which the LD50 was 7000 mg/kg. Take `CCC(=O)OCC=Cc1ccccc1`: the LD50 is 3400 mg/kg.

`COc1ccc(CNCC(O)COc2ccc3[nH]c(=O)ccc3c2)cc1OC` (stereo not given): the 50% lethal dose (LD50) was 1500 mg/kg. In the case of `ON=C1C=CC(=NO)C=C1`, the median lethal dose (LD50) is 464 mg/kg.

As to `O=C1C=CC(=O)N1C(=O)NCNC(=O)N1C(=O)C=CC1=O`, the LD50 is 1420 mg/kg. On to `O=C=Nc1ccccc1C(F)(F)F`, for which the LD50 was 7000 mg/kg. Turning to `SCc1ccccc1`, the LD50 is 493 mg/kg. Take `O=C(CCN1CCN2c3ccccc3CCC2C1)Cc1ccc(F)cc1` (stereo not given): the median lethal dose (LD50) was 800 mg/kg. Regarding `CCC(=O)CC`, the LD50 is 2140 mg/kg. As to `Cc1ccc(C(C)C)cc1O`, the 50% lethal dose (LD50) is 810 mg/kg. `Nc1ccc(-c2ccc(N)cc2)cc1`: the LD50 is 309 mg/kg. On to `COP(=S)(OC)SCN1C(=O)CCC1=O`, for which the LD50 was 7 mg/kg.

Turning to `CCSC(=O)N(CC)CC`, the median lethal dose (LD50) was 400 mg/kg. With `COc1ccc([N+](=O)[O-])cc1CNCCCl`, the LD50 is 28 mg/kg. For the compound `C=CCN(CC=C)N=O`, the LD50 is 800 mg/kg. Regarding `Cc1cc(S(=O)(=O)c2ccccc2)ccc1NS(=O)(=O)C(F)(F)F`, the 50% lethal dose (LD50) is 633 mg/kg. On to `CC1CCCc2n1c(=O)c(C(N)=O)c[n+]2C` (stereo not given), for which the LD50 was 600 mg/kg.

In the case of `CC(Cc1ccccc1)NCCN1CON=C1c1ccccc1` (stereo not given), the median lethal dose (LD50) was 649 mg/kg.

Take `CCOC(=O)CSP(=O)(OC)OC`: the LD50 was 385 mg/kg. As for `C1COCCOCCNCCOCCOCCN1`, the LD50 was 3400 mg/kg. With `C=CSC=C`, the LD50 is 170 mg/kg. Take `CO[C@@H]1[C@@H](OC(N)=O)[C@@H](O)[C@H](Oc2ccc3c(O)c(NC(=O)c4ccc(O)c(CC=C(C)C)c4)c(=O)oc3c2C)OC1(C)C`: the LD50 is 3500 mg/kg.

For the compound `CC1CNCC(C)O1` (stereo not given), the 50% lethal dose (LD50) is 2830 mg/kg. In the case of `CC#CCC(C)[C@H](O)/C=C/[C@@H]1[C@H]2c3cccc(CCCC(=O)O)c3O[C@H]2C[C@H]1O` (stereo not given in full), the LD50 was 12 mg/kg and 11.6 mg/kg. For the compound `CCCCCCc1ccc(C)cc1O`, the median lethal dose (LD50) is 2300 mg/kg. As to `CCCCCCCCCCCCCCCCCC1=NC(C)CC(C)(C)N1` (stereo not given), the LD50 was 493 mg/kg. For `CCN(CC)C(=S)Sc1nc2ccccc2s1`, the median lethal dose (LD50) was 6000 mg/kg. Regarding `FC(F)(F)c1cccc(OCC2CNC(=S)O2)c1` (stereo not given), the median lethal dose (LD50) is 524 mg/kg. Consider `CC1=NN(c2ccccc2)C(=O)C1C=O` (stereo not given), for which the LD50 is 716 mg/kg.

With `O=C(O)CCCOc1ccc(Cl)cc1Cl`, the median lethal dose (LD50) was 700 mg/kg. Turning to `COc1ccc(CC(=S)N(C)C)cc1`, the LD50 was 22 mg/kg. With `CCCCC(CC)Cc1ccccc1O` (stereo not given), the LD50 is 2460 mg/kg.

For the compound `CNS(=O)(=O)CCNC(=O)N(CCCl)N=O`, the 50% lethal dose (LD50) is 40 mg/kg. Regarding `N#C/C(=C1\SCC(c2ccccc2Cl)S1)n1ccnc1` (stereo not given), the LD50 was 652 mg/kg. Consider `CCOC(C1=NCC(CC)(CC)CN1)c1ccc(Cl)cc1` (stereo not given), for which the LD50 was 375 mg/kg. As to `Cc1c(Cl)c(=O)oc2cc(OP(=O)(OCC(C)Cl)OCC(C)Cl)ccc12` (stereo not given), the LD50 was 686 mg/kg. Regarding `CC(C)(C)NCCCCN`, the LD50 was 810 mg/kg. Turning to `NC1CCN(c2cccc(Cl)n2)CC1`, the LD50 is 190 mg/kg. For `Clc1nc(C(Cl)Cl)c(Cl)c(Cl)c1Cl`, the median lethal dose (LD50) is 1780 mg/kg. In the case of `Nc1cccc(C(F)(F)F)c1`, the median lethal dose (LD50) was 480 mg/kg. As for `CC(C)OP(=S)(CCl)Sc1ccc(Br)cc1` (stereo not given), the LD50 was 23 mg/kg. For the compound `CCCN=C(C(OCC)c1ccccc1)N1CCCCCC1` (stereo not given), the median lethal dose (LD50) was 220 mg/kg. As for `CCOP(=S)(OCC)SC1CCSc2ccc(Cl)cc21` (stereo not given), the median lethal dose (LD50) was 63 mg/kg. As for `CCCSc1nc(Cl)c([N+](=O)[O-])c(Cl)n1`, the LD50 is 300 mg/kg.

Regarding `CON=CC1=CCCN(C)C1`, the LD50 is 300 mg/kg. With `CC(C)(C)c1cc(CCC(=O)O)ccc1O`, the 50% lethal dose (LD50) was 1000 mg/kg. On to `CCCCOc1ccc(C(CN(C)C)C(C)CC)cc1Cl` (stereo not given), for which the LD50 is 1050 mg/kg. For the compound `FC(F)(F)c1ccccc1Br`, the LD50 is 2720 mg/kg.

On to `COc1ccccc1NC(=O)C(N=Nc1ccc(-c2ccc(N=NC(C(C)=O)C(=O)Nc3ccccc3OC)c(Cl)c2)cc1Cl)C(C)=O` (stereo not given), for which the LD50 is 2230 mg/kg.

For `N#CCC(N)=O`, the LD50 was 3200 mg/kg. With `CCSC(=S)N(C)C`, the LD50 was 550 mg/kg. Regarding `CCOP(=S)(OCC)O/N=C(\C#N)c1ccccc1`, the LD50 is 300 mg/kg. As to `CC(=O)C1OC1(C)C` (stereo not given), the median lethal dose (LD50) is 1610 mg/kg. Take `CC(C)COC(=O)c1ccccc1O`: the median lethal dose (LD50) is 1560 mg/kg. `CC(CN(C)C)CN1c2ccccc2CCc2ccccc21` (stereo not given): the LD50 was 800 mg/kg. Turning to `CN(C)C(=O)C(CCN1CCC(O)(c2ccc(Cl)cc2)CC1)(c1ccccc1)c1ccccc1`, the LD50 was 185 mg/kg and 98 mg/kg. On to `CN1C(C(=O)Nc2ccccn2)=C(O)c2sccc2S1(=O)=O`, for which the LD50 was 79 mg/kg.

Take `O=C1OC(CCN2CCCCC2)OC1(c1ccccc1)c1ccccc1` (stereo not given): the median lethal dose (LD50) is 1500 mg/kg.

With `Cc1cc(=O)[nH]c(=O)[nH]1`, the 50% lethal dose (LD50) was 64500 mg/kg. For `c1ccc(N2CCOCC2)cc1`, the LD50 was 930 mg/kg. As for `O=COCc1ccccc1`, the LD50 is 1400 mg/kg. As for `O=[n+]1c2ccccc2n([O-])c2ccc3ccccc3c21`, the LD50 was 4620 mg/kg. In the case of `O=C(Cc1ccccc1)OCCc1ccccc1`, the median lethal dose (LD50) was 15000 mg/kg. Consider `CC(C)(C)C(O)/C(=C\c1ccc(Cl)cc1Cl)n1cncn1` (stereo not given), for which the 50% lethal dose (LD50) was 474 mg/kg. In the case of `CCCCOC(=O)[C@@H](C)Oc1ccc(Oc2ccc(C(F)(F)F)cn2)cc1`, the median lethal dose (LD50) is 2710 mg/kg. On to `COCCOC(=O)C=CC(=O)OCCOC`, for which the 50% lethal dose (LD50) is 3340 mg/kg. `NCCN1CCNCC1`: the LD50 is 2140 mg/kg.

For the compound `CN1C(=O)CN2CCc3ccccc3C2c2cc(Cl)ccc21` (stereo not given), the LD50 was 1730 mg/kg. With `Cc1ccccc1N=NN(C)C`, the LD50 is 350 mg/kg.

With `CCOC(=O)C(C(C)=O)P(=O)(OCC)OCC` (stereo not given), the LD50 was 176 mg/kg. `CCCOC(=O)c1ccc(C(=O)OCCC)nc1`: the median lethal dose (LD50) is 5230 mg/kg. On to `Cc1ncc2coc(OCCO)c2c1O`, for which the 50% lethal dose (LD50) was 2200 mg/kg.

As for `Cc1cc(=O)oc2cc(O)ccc12`, the LD50 is 3850 mg/kg.

For the compound `CN(C)C(=O)Nc1cc(C(C)(C)C)on1`, the LD50 is 630 mg/kg. Turning to `O=C1C(Cl)C2(Cl)C3C(Cl)OC(Cl)C3C1(Cl)C2(Cl)Cl` (stereo not given), the median lethal dose (LD50) was 7 mg/kg.

Regarding `NC1CCS(=O)(=O)C1` (stereo not given), the 50% lethal dose (LD50) is 17900 mg/kg. Consider `Cc1cccc(OCCC(C)C)c1N(C)C(=O)CCl`, for which the median lethal dose (LD50) was 3300 mg/kg. On to `CCCN(CCC)c1c([N+](=O)[O-])cc(C)cc1[N+](=O)[O-]`, for which the 50% lethal dose (LD50) was 3600 mg/kg.

As for `CCN(CC)CCOC(=O)C1(C2CCCCC2)CCCCC1`, the LD50 is 1290 mg/kg. `CCCCCCCCCCCCCCCCOC(=O)C1CC1`: the LD50 was 12200 mg/kg. Turning to `CC(C)c1nnc(NS(=O)(=O)c2ccc(N)cc2)s1`, the LD50 was 3940 mg/kg.

On to `C1CN1P1(N2CC2)=NP(N2CC2)(N2CC2)=NP(N2CC2)(N2CC2)=N1`, for which the LD50 is 98 mg/kg. As to `CC(C)c1ccc2oc3nc(N)c(C(=O)O)cc3c(=O)c2c1`, the LD50 was 10000 mg/kg. As for `O=C(O)c1c(O)c(O)cc2ccccc12`, the median lethal dose (LD50) is 24500 mg/kg. As for `CC(C)c1ccnc2ccccc12`, the 50% lethal dose (LD50) is 940 mg/kg.

On to `CCOP(=S)(OCC)SCn1nc(CC)ccc1=O`, for which the LD50 is 18.8 mg/kg. Take `C1=Cc2cccc(OCC3CNCCO3)c2C1` (stereo not given): the LD50 was 502 mg/kg. For `Cc1ccccc1OCC(O)CN(NC=NC(=O)c1ccccc1)C(C)C` (stereo not given), the median lethal dose (LD50) was 2930 mg/kg. On to `Oc1ccc(Nc2ccccc2)cc1`, for which the 50% lethal dose (LD50) was 3300 mg/kg.
